The results in this text go back to patent publication US4062950A, “Amino sugar derivatives” (priority 1973, dated 1977).

The target of this assay is T1, saccharase (Sus scrofa, UniProt P56729).
T1 construct: sucrase subunit of the sucrase-isomaltase complex hydrolyses sucrose
The assay can be described thus: In vitro saccharase test. It is filed as biochemical, pig. The following applies: isolated isomer, Example 19. As for the experimental part:
One saccharase inhibitor unit (SIU) is defined as the amount of inhibitor which inhibits two saccharase units to the extent of 50%. One saccharase unit (SU) is the amount of enzyme which under the test conditions specified splits 1 μmol of sucrose to glucose and fructose per minute. The μmols of glucose formed are determined quantitatively by means of the glucose oxidase reaction under conditions under which a further splitting of the sucrose by the saccharase no longer takes place. To carry out the test, 0.05 ml of solubilized saccharase [from the mucous membrane of the small intestine of the pig, according to B. Borgastrom, A. Dahlquist, Acta Chem. Scand. 12, (1958), page 1,997], diluted with 0.1 M sodium maleate buffer of pH 6.0 to a SU content adjusted to 0.12 SU is mixed with 0-20 μg of inhibitor or 0-20 μl of the solution to be tested and brought up to 0.1 ml with 0.1 M sodium maleate buffer of pH 6.0. The mixture is equilibrated for 10 minutes at 35° C and 0.1 ml of an 0.05 M sucrose solution in 0.1 M sodium maleate buffer of pH 6.0, pre-warmed to 35° C, is then added. The mixture is incubated for 20 minutes at 35° C, the saccharase reaction is stopped by addition of 1 ml of glucose oxidase reagent, and the incubation is continued for a further 30 minutes at 35° C. (The glucose oxidase reagent is prepared by dissolving 2 mg of glucose oxidase, Boehringer, No. 15,423, in 100 ml of 0.565 M tris-HCl buffer of pH 7.0 and subsequently adding 1 ml of detergent solution (2 g of Triton X 100 + 8 g of 95% strength and analytical grade ethanol), 1 ml of dianisidine solution (260 mg of o-dianisidine. 2HCl in 20 ml of H2 O) and 0.5 ml of 0.1% strength aqueous peroxidase solution, Boehringer, No. 15,302). Thereafter, 1 ml of 50% strength H2 SO4 is added and a measurement carried out at 545 nm against a corresponding blank. To evaluate the results, the percentage inhibition of the saccharase employed is calculated and converted to SIU/g of SIU/liter from the 50% inhibition point, using a glucose calibration curve.

T1 sequence (P56729 with tags, fused parts or gaps): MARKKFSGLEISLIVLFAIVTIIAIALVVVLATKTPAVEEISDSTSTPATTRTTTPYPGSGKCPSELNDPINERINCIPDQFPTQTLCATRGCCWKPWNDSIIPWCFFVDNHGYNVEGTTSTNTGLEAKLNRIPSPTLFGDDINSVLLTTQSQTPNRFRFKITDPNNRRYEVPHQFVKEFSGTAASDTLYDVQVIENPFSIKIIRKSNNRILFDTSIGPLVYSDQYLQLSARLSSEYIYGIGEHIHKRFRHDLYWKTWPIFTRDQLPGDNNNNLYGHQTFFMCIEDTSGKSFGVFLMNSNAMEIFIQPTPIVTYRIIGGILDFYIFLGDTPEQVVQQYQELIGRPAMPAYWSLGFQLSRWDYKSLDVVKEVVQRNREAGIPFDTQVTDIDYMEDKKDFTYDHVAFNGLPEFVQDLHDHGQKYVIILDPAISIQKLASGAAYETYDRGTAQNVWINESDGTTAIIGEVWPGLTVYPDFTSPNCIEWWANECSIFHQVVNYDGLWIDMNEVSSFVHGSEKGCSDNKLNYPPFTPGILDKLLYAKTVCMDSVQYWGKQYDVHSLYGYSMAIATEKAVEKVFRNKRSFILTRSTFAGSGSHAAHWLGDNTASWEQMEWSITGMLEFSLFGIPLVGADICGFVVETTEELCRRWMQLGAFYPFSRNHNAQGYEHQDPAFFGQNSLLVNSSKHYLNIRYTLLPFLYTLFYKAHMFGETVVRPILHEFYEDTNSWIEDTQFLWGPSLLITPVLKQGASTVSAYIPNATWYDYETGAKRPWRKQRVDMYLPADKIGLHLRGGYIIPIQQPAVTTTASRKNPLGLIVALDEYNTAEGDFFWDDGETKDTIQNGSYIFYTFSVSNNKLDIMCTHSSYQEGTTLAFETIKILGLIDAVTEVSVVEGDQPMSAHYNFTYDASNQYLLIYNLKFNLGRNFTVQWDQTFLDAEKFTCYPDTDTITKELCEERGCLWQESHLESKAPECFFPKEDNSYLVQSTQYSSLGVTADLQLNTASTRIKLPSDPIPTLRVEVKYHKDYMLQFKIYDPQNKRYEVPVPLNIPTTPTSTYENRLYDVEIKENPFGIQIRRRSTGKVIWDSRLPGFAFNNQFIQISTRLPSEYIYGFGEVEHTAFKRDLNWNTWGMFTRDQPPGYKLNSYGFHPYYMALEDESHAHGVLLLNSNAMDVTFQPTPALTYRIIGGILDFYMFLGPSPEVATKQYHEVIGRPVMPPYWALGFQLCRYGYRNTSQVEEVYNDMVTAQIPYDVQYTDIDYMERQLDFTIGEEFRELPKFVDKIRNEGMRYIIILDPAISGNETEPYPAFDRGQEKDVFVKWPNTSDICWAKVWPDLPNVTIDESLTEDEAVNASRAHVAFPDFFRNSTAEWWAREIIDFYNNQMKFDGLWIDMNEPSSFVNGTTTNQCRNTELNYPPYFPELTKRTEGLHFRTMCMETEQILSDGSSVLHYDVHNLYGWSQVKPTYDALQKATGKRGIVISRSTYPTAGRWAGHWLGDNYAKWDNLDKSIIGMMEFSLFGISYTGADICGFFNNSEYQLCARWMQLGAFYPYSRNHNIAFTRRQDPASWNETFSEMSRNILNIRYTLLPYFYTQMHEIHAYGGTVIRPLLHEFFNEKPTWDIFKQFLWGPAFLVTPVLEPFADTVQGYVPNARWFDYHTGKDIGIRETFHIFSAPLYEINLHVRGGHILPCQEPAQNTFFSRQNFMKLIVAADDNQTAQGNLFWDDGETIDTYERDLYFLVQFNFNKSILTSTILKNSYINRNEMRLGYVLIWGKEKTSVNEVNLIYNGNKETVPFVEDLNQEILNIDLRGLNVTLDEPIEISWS

For the molecule `C[C@H]1O[C@H](O[C@H]2[C@H](O)[C@@H](O)[C@@H](O[C@H]3[C@H](O)[C@@H](O)[C@@H](O[C@H]4[C@H](O)[C@@H](O)C(O)O[C@@H]4CO)O[C@@H]3CO)O[C@@H]2CO)[C@H](O)[C@@H](O)[C@@H]1N[C@H]1C=C(CO)[C@@H](O)[C@H](O)[C@H]1O` (stereo partly drawn) [Formula IV, O-{4,6-bisdesoxy-4-[1S-(1,4,6/5)-4,5,6-trihydroxy-3-hydroxymethylcyclohex-2-en-1-ylamino]-α-D-glucopyranosyl}-(1→4)-O-α-D-glucopyranosyl-(1→4)-O-α-D-glucopyranosyl-(1→4)-D-glycopyranose], the in vitro saccharase inhibiting activity came to 19000 SIU/g.
